Reference: patent publication US10278968B2, “Combination therapy with glutaminase inhibitors” (Calithera Biosciences, Inc., priority 2016, dated 2019)

System: P493-6 (myc "on") cells
Experiment: Cell Proliferation Assay
Assay type: cell-based
Details: read-out: Cell prolif P493 72 h IC50; P493-6 cells, 72 h incubation
Experimental: P493-6 (myc “on”) cells were maintained in growth media (RPMI-1640, 10% FBS, 2 mM glutamine, 100 units/ml Penicillin and 100 μg/ml streptomycin) at 37° C. with 5% CO2. For compound assay, P493-6 cells were plated in 96-well V-bottom plates on the day of compound addition in 50 μl of growth media at a cell density of 200,000 cells/ml (10,000 cells/well). Compounds were serially diluted in 100% DMSO at 200-times the final concentration. Compounds were diluted 100-fold into growth media and then 50 μl of this mixture was added to cell plates making the final concentration of DMSO 0.5%. Cells were incubated with compound for 72 hrs at 37° C. with 5% CO2 and analyzed for antiproliferative effects either by Cell Titer Glo (Promega) or FACS analysis using the Viacount (Millipore) kit on the Guava instrument.

COc1ccc(OC(F)(F)F)cc1CC(=O)Nc1ccc(CCCCc2nnc(NC(=O)Cc3ccccn3)s2)nn1 [Cmpd 717]
IC50: 19 nM
